The record followed here is PubChem BioAssay (NCI).

Holding throughout (assay): NCI-60 cell line screen, 48 h
Assay [1] deals with MDA-MB-231 breast.
For assay [2], the system named is COLO 205 colon.
Assay [3] relates to OVCAR-5 ovarian.
The test system of assay [4] is 786-0 renal.
In assay [5] the test system is OVCAR-8 ovarian.
For assay [6], the system named is EKVX NSCLC.
The test system of assay [7] is SNB-75 CNS.
Assay [8] has as its system SW-620 colon.
Assay [9] relates to NCI-H460 lung.
The subject of assay [10] is K-562 leukemia.

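Results reflect a 48-hour exposure of cells in 96-well plates to compound at five concentrations. Here, GI50 denotes the concentration required for 50% inhibition of growth. The concentration for full growth arrest is given as TGI.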 Bounds are passed on as bounds.

Regarding `C[C@@H](NC(=O)/C(C#N)=C/c1ccc([N+](=O)[O-])cc1)c1ccccc1`, the GI50 in assay [1] was 2.3 µM; in assay [2], 2 µM; in assay [3], 1.96 µM; in assay [4], 2.54 µM; in assay [5], 2.87 µM; in assay [6] it was 6.81 µM. The GI50 in [7] is 2.19 µM; in [8], 1.83 µM; in [9], 2.58 µM; in assay [10], 2.75 µM. Moreover, the TGI turned out to be 5.23 µM in assay [1]; 3.71 µM in assay [2]; 4.06 µM in assay [3]; 8.84 µM in [4]; 8.05 µM in [5]; 20.7 µM in assay [6]. Moreover, the TGI in [7] turned out to be 8.33 µM; in assay [8], 3.81 µM; in assay [9] it was 6.95 µM; in assay [10], 14 µM.

Consider `COc1cc(-c2oc3c(OC)cc(OC)c(O)c3c(=O)c2OC)cc(OC)c1OC`, for which the TGI in [1] was more than 100 µM; in assay [2], more than 100 µM; in assay [3], more than 100 µM; in assay [4] it was more than 100 µM; in assay [5] it was 32.7 µM; in [6] it was more than 100 µM. For the same compound, the TGI is 5.06 µM in assay [7], more than 100 µM in assay [8], more than 100 µM in assay [9] and more than 100 µM in assay [10].

For `CC1=NN(c2ccc(S(=O)(=O)O)cc2)C(=O)/C1=C/c1ccc(Cl)cc1`, the TGI in assay [1], in assay [2], in assay [3], in assay [4], in assay [5] and in assay [6] was more than 100 µM each time. The TGI in assay [7], in [8], in assay [9] and in assay [10] was more than 100 µM in each case.

Turning to `CCCCCCCCCCCCSC1=C(Cl)C(=O)C(OC)=C(OC)C1=O`, the GI50 was 1.86 µM in [1]; 4.32 µM in assay [2]; 3.49 µM in assay [3]; 4.18 µM in assay [4]; 2.35 µM in assay [5]; 1.61 µM in assay [6]. The GI50 in assay [7] is 1.21 µM; in assay [8], 0.63 µM; in assay [9], 2.15 µM; in assay [10] it was 0.205 µM. For the same compound, the TGI in assay [1] is 10.4 µM; in assay [2], 18.4 µM; in assay [3], 11.7 µM; in [4] it was 19.2 µM; in [5], more than 100 µM; in assay [6], more than 29.5 µM. Further, the TGI in assay [7] is 10.7 µM; in assay [8], 17.5 µM; in [9] it was 11.1 µM; in [10], more than 40 µM.

For the compound `COc1cc(/C(=C2/O[C@@H]([C@H]3COC(C)(C)O3)[C@H]3OC(C)(C)O[C@@H]23)c2ccc3ccccc3c2)cc(OC)c1OC`, the GI50 in [1] was 6.28 µM; in [2] it was 6.97 µM; in assay [3], 14 µM; in [4], 2.3 µM; in assay [5], 3.89 µM; in [6], 5.59 µM. The GI50 in assay [7] was 2.89 µM; in assay [8], 4.31 µM; in [9] it was 4.1 µM; in [10], 4.02 µM. The TGI in assay [1] was 69.7 µM; in assay [2], more than 100 µM; in [3], more than 100 µM; in assay [4] it was 4.47 µM; in assay [5] it was more than 100 µM; in assay [6] it was more than 100 µM. The TGI in [7] is 7.44 µM; in assay [8], more than 100 µM; in [9], more than 100 µM; in assay [10], more than 100 µM.

For the compound `COc1cc(C(=O)N2CCN(c3ccccc3)CC2)c2ccccc2n1`, the GI50 was 0.301 µM in [1]; 0.0623 µM in assay [2]; 0.586 µM in assay [3]; 0.127 µM in [4]; 0.248 µM in assay [5]; 0.243 µM in [6]. The GI50 in assay [7] was 0.0402 µM; in assay [8], 0.0526 µM; in [9] it was 0.0481 µM; in [10] it was 0.0782 µM. Also, the TGI in [1] is more than 25.2 µM; in [2], 0.659 µM; in [3] it was more than 100 µM; in [4], more than 100 µM; in assay [5] it was more than 23.8 µM; in assay [6], more than 100 µM. Moreover, the TGI in [8] was more than 100 µM; in assay [9], 4.1 µM; in [10], more than 100 µM.

Turning to `C[C@]12CC[C@@H]3c4cc(OC(F)F)c(OS(N)(=O)=O)cc4CC[C@H]3[C@@H]1CC[C@@H]2OS(N)(=O)=O`, the GI50 was 3.05 µM in assay [1]; 2.97 µM in assay [2]; 4.73 µM in assay [3]; 1.8 µM in assay [4]; 1.74 µM in assay [5]; 1.7 µM in assay [6]. The GI50 in assay [7] is 0.463 µM; in assay [8], 0.439 µM; in [9], 1.45 µM; in assay [10], 0.389 µM. Further, the TGI in assay [1] is 28.2 µM; in assay [2] it was 21.4 µM; in [3], 26.5 µM; in [4], 16.5 µM; in assay [5], more than 59 µM; in assay [6], 22.5 µM. Moreover, the TGI is 2.15 µM in assay [7], 20.7 µM in assay [8], 15.4 µM in assay [9] and more than 100 µM in [10].

`N#C[Se]CCN1C(=O)C2C(C1=O)[C@H]1C=C[C@@H]2S1` (some centres undefined): the GI50 in assay [1] was 2.24 µM; in assay [2], 2.45 µM; in assay [3], 2.56 µM; in assay [4], 1.97 µM; in assay [5], 2.11 µM; in [6], 1.83 µM. Also, the GI50 in assay [7] is 1.39 µM; in assay [8], 2.87 µM; in [9], 1.93 µM; in assay [10] it was 3.24 µM. Moreover, the TGI in assay [1] was found to be 5.2 µM; in [2], 6.42 µM; in assay [3], 6.4 µM; in assay [4] it was 3.68 µM; in assay [5], 5.26 µM; in [6] it was 4.28 µM. Also, the TGI turned out to be 3.85 µM in [7], 8.19 µM in assay [8], 6.77 µM in [9] and 12 µM in assay [10].
